For three compounds, Ki results are on record in publication PMC10094600, “Enzymatic Synthesis of 2-Chloropurine Arabinonucleosides with Chiral Amino Acid Amides at the C6 Position and an Evaluation of Antiproliferative Activity In Vitro” (International Journal of Molecular Sciences, 2023).

SMILES strings stand for the structures.

The target of this test is T1, E. coli adenosine deaminase (Escherichia coli, UniProt P22333).
T1 construct: gene add; recombinant
T1 sequence (P22333 1-333): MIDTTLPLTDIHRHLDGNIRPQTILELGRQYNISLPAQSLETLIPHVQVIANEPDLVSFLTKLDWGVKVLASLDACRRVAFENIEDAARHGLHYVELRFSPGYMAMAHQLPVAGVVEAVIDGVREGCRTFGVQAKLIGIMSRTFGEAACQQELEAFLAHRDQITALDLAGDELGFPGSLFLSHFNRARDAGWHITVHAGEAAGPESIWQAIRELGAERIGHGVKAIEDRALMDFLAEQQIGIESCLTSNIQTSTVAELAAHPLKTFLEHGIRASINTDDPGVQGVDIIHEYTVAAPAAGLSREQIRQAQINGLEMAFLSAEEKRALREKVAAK
Nature of the test: inhibition of adenosine deamination, HPLC, Lineweaver-Burk. The format is biochemical.

For the compound `Nc1nc(Cl)nc2c1ncn2[C@@H]1O[C@H](CO)[C@@H](O)[C@@H]1O` [compound 16, 6-Amino-2-chloro-9-beta-D-arabinofuranosyl-9H-purine], affinity was put at a Ki of 130 ± 20 µM.

`NC(=O)[C@H](CO)Nc1nc(Cl)nc2c1ncn2[C@@H]1O[C@H](CO)[C@@H](O)[C@@H]1O` [4b, 9-β-D-Arabinofuranosyl-2-chloro-6-(N^α-L-serinylamido)-purine] gave an inhibitory constant (Ki) of 1200 ± 200 µM.

With `Nc1nc(Cl)nc2c1ncn2[C@@H]1O[C@H](CO)[C@@H](O)[C@H]1O` [compound 15, 2-chloradenosine], the inhibitory constant (Ki) was 78 ± 12 µM. This Ki is about 15-fold lower than that of the compound before.
